{
  "source": "ChEMBL document CHEMBL1152391",
  "about": "“Development of a selective and potent radioactive ligand for histamine H(3) receptors: A compound potentially useful for receptor occupancy studies” (Bioorg Med Chem Lett, 2009)",
  "key": {"[1]": {"molecular_target": "Histamine H3 receptor (Mus musculus) (UniProt P58406)", "sequence (P58406 whole entry)": "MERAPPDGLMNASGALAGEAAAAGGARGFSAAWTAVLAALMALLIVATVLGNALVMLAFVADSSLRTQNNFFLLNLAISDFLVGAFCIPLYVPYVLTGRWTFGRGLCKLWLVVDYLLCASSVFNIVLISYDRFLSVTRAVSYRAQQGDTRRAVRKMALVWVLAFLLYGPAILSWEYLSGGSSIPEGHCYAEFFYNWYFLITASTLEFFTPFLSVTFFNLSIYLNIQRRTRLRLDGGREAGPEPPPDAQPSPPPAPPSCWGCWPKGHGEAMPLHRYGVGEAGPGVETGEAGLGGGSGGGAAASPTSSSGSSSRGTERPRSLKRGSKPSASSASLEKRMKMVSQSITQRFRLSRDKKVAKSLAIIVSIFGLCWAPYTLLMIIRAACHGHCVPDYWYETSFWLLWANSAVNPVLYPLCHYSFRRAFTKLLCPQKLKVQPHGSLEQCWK", "assay": "Inverse agonist activity at mouse histamine H3 receptor overexpressed in HEK293 cells by [35S]GTPgammaS binding assay relative to basal level", "type": "functional, cell-based", "conditions": "concentration not given here"}, "Histamine H3 receptor [2]": {"molecular_target": "T1, Histamine H3 receptor (Mus musculus, UniProt P58406)", "T1 sequence (P58406 whole entry)": "as above", "assay": "Binding affinity to mouse histamine H3 receptor overexpressed in HEK293 cells", "type": "cell-based"}, "Histamine H3 receptor [3]": {"molecular_target": "T1, Histamine H3 receptor", "assay": "Binding affinity to histamine H3 receptor in wild type mouse brain membrane", "type": "cell membranes"}, "[4]": {"assay": "Lipophilicity, log d at pH 7.4", "type": "physicochemical", "conditions": "buffer"}, "Histamine H3 receptor [5]": {"molecular_target": "T1, Histamine H3 receptor", "assay": "biochemical"}, "Histamine H3 receptor [6]": {"molecular_target": "T1, Histamine H3 receptor", "assay": "Inverse agonist activity at mouse histamine H3 receptor overexpressed in HEK293 cells by [35S]GTPgammaS binding assay", "type": "functional, cell-based"}, "Histamine H4 receptor": {"molecular_target": "Histamine H4 receptor (Homo sapiens, UniProt Q9H3N8)", "sequence (Q9H3N8 whole entry)": "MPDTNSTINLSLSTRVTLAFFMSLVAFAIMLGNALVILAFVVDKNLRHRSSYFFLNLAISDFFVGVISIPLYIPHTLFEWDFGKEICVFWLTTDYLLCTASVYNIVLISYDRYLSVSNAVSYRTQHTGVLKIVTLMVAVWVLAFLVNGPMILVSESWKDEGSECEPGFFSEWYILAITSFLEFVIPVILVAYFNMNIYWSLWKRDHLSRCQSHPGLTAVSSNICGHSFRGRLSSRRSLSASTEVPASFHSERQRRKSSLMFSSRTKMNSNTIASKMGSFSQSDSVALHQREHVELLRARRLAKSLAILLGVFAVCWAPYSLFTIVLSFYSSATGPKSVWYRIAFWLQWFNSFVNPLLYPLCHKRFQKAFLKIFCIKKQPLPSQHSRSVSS", "assay": "Inhibition of histamine H4 receptor"}, "[7]": {"assay": "Drug level in Sprague-Dawley rat cerebrospinal fluid at 10 mg/kg, po after 2 hrs", "type": "ADME, organism-based", "set-up": "dose 10 mg/kg, route oral", "conditions": "read-out: Drug uptake"}, "Brain [8]": {"test_system": "Brain", "assay": "Drug level in Sprague-Dawley rat brain at 10 mg/kg, po after 2 hrs", "type": "ADME, organism-based", "set-up": "dose 10 mg/kg, route oral", "conditions": "in vivo"}, "Histamine H2 receptor": {"molecular_target": "Histamine H2 receptor (Homo sapiens, UniProt P25021)", "sequence (P25021 whole entry)": "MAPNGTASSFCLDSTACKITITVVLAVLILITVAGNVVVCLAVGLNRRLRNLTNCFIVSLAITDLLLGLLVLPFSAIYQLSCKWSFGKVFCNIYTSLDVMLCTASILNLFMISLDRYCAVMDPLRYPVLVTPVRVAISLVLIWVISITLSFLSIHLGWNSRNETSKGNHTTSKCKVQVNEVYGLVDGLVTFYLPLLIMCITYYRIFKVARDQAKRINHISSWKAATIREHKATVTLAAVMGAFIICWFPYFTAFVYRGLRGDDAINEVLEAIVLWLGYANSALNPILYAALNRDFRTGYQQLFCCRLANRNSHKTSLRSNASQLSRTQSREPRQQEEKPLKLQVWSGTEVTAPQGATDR", "assay": "Inhibition of histamine H2 receptor"}, "Brain [9]": {"test_system": "Brain", "assay": "Ex vivo binding affinity to histamine H3 receptor in wild type mouse coronal brain sections at 3 nM after 30 mins by receptor occupancy assay", "type": "functional, tissue-based", "conditions": "tested as the 3H-labelled form"}, "Histamine H1 receptor": {"molecular_target": "Histamine H1 receptor (Homo sapiens, UniProt P35367)", "sequence (P35367 whole entry)": "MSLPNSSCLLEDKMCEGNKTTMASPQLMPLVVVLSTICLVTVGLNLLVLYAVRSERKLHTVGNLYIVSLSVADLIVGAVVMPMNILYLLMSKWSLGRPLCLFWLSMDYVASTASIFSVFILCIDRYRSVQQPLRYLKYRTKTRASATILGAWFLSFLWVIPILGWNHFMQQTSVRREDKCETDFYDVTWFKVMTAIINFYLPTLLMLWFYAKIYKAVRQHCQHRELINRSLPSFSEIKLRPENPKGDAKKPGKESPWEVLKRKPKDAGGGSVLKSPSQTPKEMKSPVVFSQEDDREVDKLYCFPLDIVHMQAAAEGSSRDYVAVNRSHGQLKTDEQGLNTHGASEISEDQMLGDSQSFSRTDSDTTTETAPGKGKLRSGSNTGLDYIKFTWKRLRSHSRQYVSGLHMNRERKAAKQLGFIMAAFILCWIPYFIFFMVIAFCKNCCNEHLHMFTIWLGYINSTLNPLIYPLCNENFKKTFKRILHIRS", "assay": "Inhibition of histamine H1 receptor"}, "[10]": {"assay": "Plasma concentration in Sprague-Dawley rat at 10 mg/kg, po after 2 hrs", "type": "ADME, organism-based", "set-up": "dose 10 mg/kg, route oral"}, "Histamine H3 receptor [11]": {"molecular_target": "Histamine H3 receptor (Rattus norvegicus, UniProt Q9QYN8)", "sequence (Q9QYN8 whole entry)": "as the sequence (P58406 whole entry) above, with A15T, T286A, G290A, H387R, V389I counted along it", "assay": "Binding affinity to rat histamine H3 receptor by competitive binding assay"}},
  "note": "The source made the active and inactive calls. The rule behind the calls is not given here.",
  "data": [
    {"compound": "N=C(NCc1ccc(Cl)cc1)SCCCc1c[nH]cn1", "values": [
      {"measurement": "inhibition", "setting": "[1]", "value": 14, "unit": "%"}
    ]},
    {"compound": "[3H]C([3H])([3H])n1c(-c2ccc(OCCCN3CCCC3)cc2)nc2ccccc2c1=O", "values": [
      {"measurement": "Kd", "setting": "Histamine H3 receptor [2]", "value": 2.6, "unit": "nM"},
      {"measurement": "Kd", "setting": "Histamine H3 receptor [3]", "value": 3.1, "unit": "nM"},
      {"measurement": "logD", "setting": "[4]", "value": 1.2}
    ]},
    {"compound": "N=C(N)SCCc1cnc[nH]1", "note": "[IMETIT]", "values": [
      {"measurement": "Ki", "setting": "Histamine H3 receptor [5]", "value": 2, "unit": "nM"}
    ]},
    {"compound": "S=C(NC1CCCCC1)N1CCC(c2cnc[nH]2)CC1", "note": "[THIOPERAMIDE]", "values": [
      {"measurement": "EC50", "setting": "Histamine H3 receptor [6]", "value": 11, "unit": "nM"},
      {"measurement": "inhibition", "setting": "[1]", "value": 27, "unit": "%"},
      {"measurement": "Ki", "setting": "Histamine H3 receptor [5]", "value": 4.8, "unit": "nM"}
    ]},
    {"compound": "CNCCc1c[nH]cn1", "values": [
      {"measurement": "Ki", "setting": "Histamine H3 receptor [5]", "value": 19, "unit": "nM"}
    ]},
    {"compound": "NCCc1c[nH]cn1", "note": "[HISTAMINE]", "values": [
      {"measurement": "Ki", "setting": "Histamine H3 receptor [5]", "value": 68, "unit": "nM"}
    ]},
    {"compound": "Cn1c(-c2ccc(OCCCN3CCCC3)cc2)nc2ccccc2c1=O", "values": [
      {"measurement": "IC50", "setting": "Histamine H4 receptor", "value": "> 10000", "unit": "nM"},
      {"measurement": "concentration at 2 h", "setting": "[7]", "value": 134, "unit": "nM"},
      {"measurement": "Drug uptake", "setting": "Brain [8]", "value": 2.22, "unit": "nmol/g"},
      {"measurement": "EC50", "setting": "Histamine H3 receptor [6]", "value": 9.6, "unit": "nM"},
      {"measurement": "inhibition", "setting": "[1]", "value": 24, "unit": "%"},
      {"measurement": "Ki", "setting": "Histamine H3 receptor [5]", "value": 2.4, "unit": "nM"},
      {"measurement": "IC50", "setting": "Histamine H2 receptor", "value": "> 10000", "unit": "nM"},
      {"measurement": "Activity", "setting": "Brain [9]", "value": "Active"},
      {"measurement": "IC50", "setting": "Histamine H1 receptor", "value": "> 10000", "unit": "nM"},
      {"measurement": "concentration at 2 h", "setting": "[10]", "value": 1360, "unit": "nM"},
      {"measurement": "Ki", "setting": "Histamine H3 receptor [11]", "value": 12, "unit": "nM"}
    ]},
    {"compound": "NC(=NCc1ccc(Cl)cc1)SCCCc1cnc[nH]1", "note": "[CLOBENPROPIT]", "values": [
      {"measurement": "EC50", "setting": "Histamine H3 receptor [6]", "value": 1.7, "unit": "nM"}
    ]}
  ]
}
